In patent US20260027087A1, “DOSING REGIMENS COMPRISING A KAT6 INHIBITOR FOR THE TREATMENT OF CANCER” (PFIZER INC., priority 2022, published 2026):
“And” between values parts separate entries of the source, which are not always exact repeats. Identical values can stand only once. Like-named read-outs stand apart in the source and are kept apart here.

Key:
[1] = Phase 1 clinical trial: COMPOUND A plasma pharmacokinetics; assay type: in vivo, human; conditions: for CL/F (apparent clearance) / Cmax / AUC: geometric mean (CV %); for Tmax / Cmax / AUC: human, plasma; for AUC: read-out: AUC24
Method: (§1) The patients in this trial are intolerant of or resistant to standard therapy.
COMPOUND A was orally administered at 2 mg, 5 mg, 8 mg, and 15 mg QD alone or 5 mg QD in combination with 500 mg of fulvestrant.
Preliminary pharmacokinetic parameters are available from 23 participants following the 1st oral dose (Day 1 of Cycle 1) and at steady state (Day 15 of Cycle 1) and presented in Table 1.
1S COMPOUND A was orally administered at 1 mg, 2 mg, 5 mg, 8 mg, and 15 mg QD alone or 5 mg QD in combination with 500 mg of fulvestrant.
A total of 29 participants had evaluable PK concentration data in Part 1A and Part 1B, at the time of the data cut-off date of 30 Sep. 2022. Of these participants, two (2) in the 1 mg QD dose group were excluded from Cycle 1 Day 15 summaries due to either dose interruption impacting PK analysis or sample collection after the data cut-off date.
Participants were to swallow COMPOUND A whole tablets and were not to manipulate or chew the study intervention prior to swallowing. COMPOUND A was administered QD by mouth for all cohorts on a continuous basis. The once daily dose was administered in 24±3 hour intervals (i.e., no less than 21 hours and no more than 27 hours apart). All cycles were 28 days in length.

[2] = system: locally advanced or metastatic selected solid tumors (ER+HER2− breast cancer, CRPC, or NSCLC); assay: Phase 1 clinical trial: clinical efficacy (tumor response); assay type: in vivo, human; conditions: for confirmed and durable partial responses (PR): ER+/HER2− breast cancer; for confirmed and durable partial responses, response-evaluable pts with ER+/HER2− mBC: progressed on prior ET+CDK4/6 inhibitor
Text: as §1
Study Design: The overall study design is depicted in FIG. 1. The study contains two parts, a dose escalation (Part 1) followed by a dose expansion (Part 2). Not shown in FIG. 1 are Part 1D and Part 2D, which are additional arms in Part 1 and Part 2 in the study design and are described below.
Part 1A (Monotherapy Dose Escalation) contains dose escalation as monotherapy in patients with locally advanced or metastatic ER+HER2− breast cancer, CRPC, or NSCLC that is resistant or intolerant to standard therapy or for whom no standard therapy is available, to determine the maximum tolerated dose (MTD) and select the RDE. […] A 2-parameter Bayesian Logistic Regression Model (BLRM) was used for dose finding.
Part 1B (Combination Dose Escalation), COMPOUND A in combination with fulvestrant was evaluated for dose finding in patients with locally advanced or metastatic ER+HER2− breast cancer (2L+) who progressed after at least one line of treatment with an endocrine therapy and a CDK4/6 inhibitor to determine the MTD and RDE for this combination. Combination RDE may be different from monotherapy RDE due to potential toxicity overlap. A 5-parameter BLRM was used for dose finding.

[3] = Human pharmacokinetics predicted from preclinical data; conditions: in humans, based on preclinical data
[4] = Parts 1A + 1B, of the 10 with SD

**Q.** For COc1ccccc1S(=O)(=O)Nc1noc2cc(Cn3cccn3)cc(OC)c12 [COMPOUND A, 2-Methoxy-N-{4-methoxy-6-[(1H-pyrazol-1-yl)methyl]-1,2-benzoxazol-3-yl}benzene-1-sulfonamide], which “time to steady state” value ([1]; 1 mg to 15 mg QD, cut-off 30 Sep. 2022) is on record?
**A.** The value was “achieved by Cycle 1 Day 15”.

**Q.** And the “Rac (ratio of AUC24 at Cycle 1 Day 15 to AUC24 at Cycle 1 Day 1)” value ([1]; 5 mg QD oral in combination with fulvestrant, N=4, median (minimum, maximum))?
**A.** Its value is 4.2 (3.2, 5.1).

**Q.** What about the “Rac (ratio of AUC24 at Cycle 1 Day 15 to AUC24 at Cycle 1 Day 1)” value ([1]; 5 mg QD oral monotherapy, N=4, median (minimum, maximum)) of the same compound?
**A.** Its value is 4.1 (2.9, 5.5).

**Q.** What about the “Rac (ratio of AUC24 at Cycle 1 Day 15 to AUC24 at Cycle 1 Day 1)” value ([1]; 8 mg QD oral monotherapy, N=7, median (minimum, maximum)) of the same compound?
**A.** The value was 3.8 (3.1, 5.1).

**Q.** What about the “Rac (ratio of AUC24 at Cycle 1 Day 15 to AUC24 at Cycle 1 Day 1)” value ([1]; 15 mg QD oral monotherapy, N=6, median (minimum, maximum)) of the same compound?
**A.** Its value is 3.8 (2.3, 4.7).

**Q.** What about the “CL/F (apparent clearance)” value ([1]; C1D15, 5 mg QD oral in combination with fulvestrant, N=4) of the same compound?
**A.** Its value is 0.10 (26.9) L/hr.

**Q.** And the “CL/F (apparent clearance)” value ([1]; C1D15, 5 mg QD oral monotherapy, N=4)?
**A.** The value was 0.14 (23.9) L/hr.

**Q.** And the “CL/F (apparent clearance)” value ([1]; C1D15, 8 mg QD oral monotherapy, N=7)?
**A.** The value was 0.10 (9.7) L/hr.

**Q.** And the “CL/F (apparent clearance)” value ([1]; C1D15, 15 mg QD oral monotherapy, N=6)?
**A.** Its value is 0.12 (43.2) L/hr.

**Q.** And the “drug-drug interaction between COMPOUND A and fulvestrant” value ([1]; CL/F similar alone and in combination)?
**A.** Its value is “no apparent drug-drug interaction”.

**Q.** What about the linearity of pharmacokinetics ([1]; CL/F similar at each dose level, 2 mg to 15 mg, cut-off 23 Mar. 2022) of the same compound?
**A.** Its linearity of pharmacokinetics is “linear”.

**Q.** What about the “linearity of PK” value ([1]; between 1 mg and 15 mg QD dose regimens, cut-off 30 Sep. 2022) of the same compound?
**A.** Its value is “linear”.

**Q.** What about the “COMPOUND A exposure (AUC24) versus dose” value ([1]; dose range 2 mg to 15 mg, alone or in combination with fulvestrant) of the same compound?
**A.** The value was “increased proportionally when dose was increased”.

**Q.** And the Tmax ([1]; oral, following repeated daily dosing to Day 15, read-out: median Tmax)?
**A.** The Tmax was 3 h.

**Q.** And the Cmax ([1]; po, 5 mg, C1D1 (after 1st dose), 5 mg QD oral monotherapy, N=4)?
**A.** The Cmax was 508 ng/mL.

**Q.** And the AUC ([1]; po, 5 mg, C1D1, 5 mg QD oral monotherapy, N=4)?
**A.** Its AUC is 8900 ng·h/mL.

**Q.** What about the Tmax ([1]; po, 5 mg, C1D1, 5 mg QD oral monotherapy, N=4, median (minimum, maximum), read-out: Tmax) of the same compound?
**A.** The Tmax was 3.5 h.

**Q.** What about the Cmax ([1]; po, 5 mg, C1D15 (steady state), 5 mg QD oral monotherapy, N=4) of the same compound?
**A.** Its Cmax is 1710 ng/mL.

**Q.** And the AUC ([1]; po, 5 mg, C1D15, 5 mg QD oral monotherapy, N=4)?
**A.** Its AUC is 35900 ng·h/mL.

**Q.** And the Tmax ([1]; po, 5 mg, C1D15, 5 mg QD oral monotherapy, N=4, median (minimum, maximum), read-out: Tmax)?
**A.** Its Tmax is 3 h.

**Q.** And the Cmax ([1]; po, 8 mg, C1D1 (after 1st dose), 8 mg QD oral monotherapy, N=7)?
**A.** The Cmax was 1050 ng/mL.

**Q.** And the AUC ([1]; po, 8 mg, C1D1, 8 mg QD oral monotherapy, N=7)?
**A.** Its AUC is 20500 ng·h/mL.

**Q.** What about the Tmax ([1]; po, 8 mg, C1D1, 8 mg QD oral monotherapy, N=7, median (minimum, maximum), read-out: Tmax) of the same compound?
**A.** Its Tmax is 3 h.

**Q.** And the Cmax ([1]; po, 8 mg, C1D15 (steady state), 8 mg QD oral monotherapy, N=7)?
**A.** The Cmax was 3620 ng/mL.

**Q.** What about the AUC ([1]; po, 8 mg, C1D15, 8 mg QD oral monotherapy, N=7) of the same compound?
**A.** The AUC was 76500 ng·h/mL.

**Q.** What about the Tmax ([1]; po, 8 mg, C1D15, 8 mg QD oral monotherapy, N=7, median (minimum, maximum), read-out: Tmax) of the same compound?
**A.** Its Tmax is 3 h.

**Q.** And the Cmax ([1]; po, 15 mg, C1D1 (after 1st dose), 15 mg QD oral monotherapy, N=6)?
**A.** The Cmax was 1940 ng/mL.

**Q.** What about the AUC ([1]; po, 15 mg, C1D1, 15 mg QD oral monotherapy, N=6) of the same compound?
**A.** Its AUC is 35700 ng·h/mL.

**Q.** And the Tmax ([1]; po, 15 mg, C1D1, 15 mg QD oral monotherapy, N=6, median (minimum, maximum), read-out: Tmax)?
**A.** Its Tmax is 3.5 h.

**Q.** And the Cmax ([1]; po, 15 mg, C1D15 (steady state), 15 mg QD oral monotherapy, N=6)?
**A.** The Cmax was 6030 ng/mL.

**Q.** What about the AUC ([1]; po, 15 mg, C1D15, 15 mg QD oral monotherapy, N=6) of the same compound?
**A.** The AUC was 127000 ng·h/mL.

**Q.** And the Tmax ([1]; po, 15 mg, C1D15, 15 mg QD oral monotherapy, N=6, median (minimum, maximum), read-out: Tmax)?
**A.** Its Tmax is 3 h.

**Q.** What about the Cmax ([1]; po, C1D1 (after 1st dose), 5 mg QD oral in combination with fulvestrant, N=4) of the same compound?
**A.** The Cmax was 641 ng/mL.

**Q.** And the AUC ([1]; po, C1D1, 5 mg QD oral in combination with fulvestrant, N=4)?
**A.** The AUC was 12100 ng·h/mL.

**Q.** And the Tmax ([1]; po, C1D1, 5 mg QD oral in combination with fulvestrant, N=4, median (minimum, maximum), read-out: Tmax)?
**A.** Its Tmax is 6 h.

**Q.** What about the Cmax ([1]; po, C1D15 (steady state), 5 mg QD oral in combination with fulvestrant, N=4) of the same compound?
**A.** Its Cmax is 2340 ng/mL.

**Q.** What about the AUC ([1]; po, C1D15, 5 mg QD oral in combination with fulvestrant, N=4) of the same compound?
**A.** The AUC was 50100 ng·h/mL.

**Q.** And the Tmax ([1]; po, C1D15, 5 mg QD oral in combination with fulvestrant, N=4, median (minimum, maximum), read-out: Tmax)?
**A.** Its Tmax is 6 h.

**Q.** What about the “steady-state concentrations relative to Cerf targets (defined from preclinical models)” value ([1]; when dosed at ≥1 mg) of the same compound?
**A.** Its value is “near or above Cerf targets”.

**Q.** And the “Duration of response (DOR)” value ([2]; 1 patient in Part 1A)?
**A.** Its value is 19.4 months.

**Q.** What about the “Duration of response (DOR)” value ([2]; 2 patients in Part 1B (one value per patient)) of the same compound?
**A.** Its value is 8.1 months and 10 months.

**Q.** And the clinical efficacy ([2]; 31 participants treated, cut-off 23 Mar. 2022)?
**A.** Its clinical efficacy is “early signs of clinical efficacy”.

**Q.** What about the “confirmed and durable partial responses (PR)” value ([2]; Part 1A (8 mg monotherapy)) of the same compound?
**A.** Its value is 1 patients.

**Q.** What about the “confirmed and durable partial responses, response-evaluable pts with ER+/HER2− mBC” value ([2]; Part 1A (monotherapy)) of the same compound?
**A.** Its value is “⅛”.

**Q.** What about the “confirmed and durable partial responses, response-evaluable pts with ER+/HER2− mBC” value ([2]; Part 1B (5 mg QD + fulvestrant)) of the same compound?
**A.** Its value is 2/4.

**Q.** And the “confirmed and durable partial responses (PR)” value ([2]; Part 1B (5 mg QD/fulvestrant 500 mg))?
**A.** Its value is 2 patients.

**Q.** And the “Stable disease (SD), patients with CRPC” value [2, 4]?
**A.** Its value is 4.

**Q.** What about the “Stable disease (SD), patients with ER+/HER2− breast cancer” value [2, 4] of the same compound?
**A.** Its value is 5.

**Q.** And the “Stable disease (SD), patients with NSCLC” value [2, 4]?
**A.** The value was 1.

**Q.** And the “confirmed and durable partial responses (PR)” value ([2]; among response-evaluable patients (n=22))?
**A.** The value was 3 patients.

**Q.** What about the “clinical responses in heavily treated patients with ER+HER2− breast cancer” value ([2]; as of 30 Sep. 2022) of the same compound?
**A.** Its value is “confirmed and durable clinical responses were observed”.

**Q.** And the “patients with SD lasting ≥6 months” value ([2]; as of 30 Sep. 2022)?
**A.** The value was “Three”.

**Q.** What about the “efficacy in ER+HER2− breast cancer patients” value ([2]; during dose escalation, as of 23 Mar. 2022) of the same compound?
**A.** Its value is “signs of efficacy”.

**Q.** What about the “duration of SD” value ([2]; patient with CRPC, 5 mg QD) of the same compound?
**A.** Its value is 9.1 months.

**Q.** What about the “duration of SD” value ([2]; patient with CRPC, 15 mg QD) of the same compound?
**A.** Its value is 11.3 months.

**Q.** And the “duration of SD” value ([2]; patient with ER+/HER2− breast cancer, 8 mg QD)?
**A.** Its value is 7.5 months.

**Q.** What about the “predicted Vss” value [3] of the same compound?
**A.** Its value is roughly 0.1 L/kg.

**Q.** What about the predicted oral bioavailability [3] of the same compound?
**A.** The predicted oral bioavailability was “high oral bioavailability”.

**Q.** What about the “predicted plasma CL” value [3] of the same compound?
**A.** The value was roughly 6 mL/h/kg.

**Q.** And the predicted t [3]?
**A.** Its predicted t is “approximately 12 h”.
